The record followed here is the NIST ThermoML archive (doi:10.1016/j.tca.2018.10.003).

Numbers after ± are expanded uncertainties.

The conditions of the series: Crystal; DSC.

For `O=C(OOC(=O)c1ccccc1)c1ccccc1` [benzoyl peroxide], the Triple point temperature was determined as 377.75 ± 4.1 K.
